The text below walks through data of ChEMBL document CHEMBL4177636, “Design, synthesis, and biological evaluation of pyrrolobenzodiazepine-containing hypoxia-activated prodrugs” (Bioorg Med Chem Lett, 2017).

The structures appear in SMILES notation.

In general, IC50 refers to the concentration at which inhibition is half-maximal.

For data set [1], the system named is NCI-H460. Put plainly: Cytotoxicity against human NCI-H460 cells after 24 hrs under hypoxic condition by luminescence-based Cell-Titer Glo assay. Type of data set: functional. Conditions: NCI-H460, 24 h.
For data set [2], the system named is NCI-H460. Put plainly: Cytotoxicity against human NCI-H460 cells after 24 hrs under normoxic condition by luminescence-based Cell-Titer Glo assay. Conditions: NCI-H460, 24 h.
Data set [3] in a line: Selectivity index, ratio of prodrug IC50 under normoxic condition to prodrug IC50 under hypoxic condition. Type of data set: functional.
Data set [4] in a line: Induction of DNA (unknown origin) alkylation assessed as amount remaining of unalkylated test oligonucleotides after 18 hrs by LC/MS/UV analysis. Further details: concentration or dose not given beside the values.
Data set [5] is described as follows: Prodrug activation assessed as recombinant human cytochrome P450-reductase-mediated drug metabolism by measuring (11aS,11a'S)-8,8'-(pentane-1,5-diylbis(oxy))bis(7-methoxy-2-methylene-2,3-dihydro-1H-benzo[e]pyrrolo[1,2-a][1,4]diazepin-5(11aH)-one) level under normoxic condition after 2 hrs by LC-MS analysis. Type of data set: ADME. The conditions noted are these: recombinant enzyme.

A short description of data set [6]: Prodrug activation assessed as recombinant human cytochrome P450-reductase-mediated drug metabolism by measuring (11aS,11a'S)-8,8'-(pentane-1,5-diylbis(oxy))bis(7-methoxy-2-methylene-2,3-dihydro-1H-benzo[e]pyrrolo[1,2-a][1,4]diazepin-5(11aH)-one) level under hypoxic condition after 2 hrs by LC-MS analysis. The conditions noted are these: recombinant enzyme. Type of data set: ADME.

A short description of data set [7]: Prodrug activation assessed as recombinant human cytochrome P450-reductase-mediated drug metabolism by measuring (S)-7,8-dimethoxy-2-methylene-2,3-dihydro-1H-benzo[e]pyrrolo[1,2-a][1,4]diazepin-5(11aH)-one level under normoxic condition after 2 hrs by LC-MS analysis. Type of data set: ADME. The conditions noted are these: recombinant enzyme.
A short description of data set [8]: Prodrug activation assessed as recombinant human cytochrome P450-reductase-mediated drug metabolism by measuring (S)-7,8-dimethoxy-2-methylene-2,3-dihydro-1H-benzo[e]pyrrolo[1,2-a][1,4]diazepin-5(11aH)-one level under hypoxic condition after 2 hrs by LC-MS analysis. Type of data set: ADME. The conditions noted are these: recombinant enzyme.
Data set [9] can be described thus: Prodrug activation assessed as recombinant human cytochrome P450-reductase-mediated drug metabolism by measuring (S)-7,8-dimethoxy-2-(quinolin-6-yl)-1H-benzo[e]pyrrolo[1,2-a][1,4]diazepin-5(11aH)-one level under normoxic condition after 2 hrs by LC-MS analysis. Type of data set: ADME. The conditions noted are these: recombinant enzyme.
The nature of data set [10]: Prodrug activation assessed as recombinant human cytochrome P450-reductase-mediated drug metabolism by measuring (S)-7,8-dimethoxy-2-(quinolin-6-yl)-1H-benzo[e]pyrrolo[1,2-a][1,4]diazepin-5(11aH)-one level under hypoxic condition after 2 hrs by LC-MS analysis. Type of data set: ADME. The conditions noted are these: recombinant enzyme.

In the case of `Cn1c(COP(=O)(NCCBr)NCCBr)cnc1[N+](=O)[O-]` [EVOFOSFAMIDE], the results for the IC50 in the data set on NCI-H460 [1] and in the data set on NCI-H460 [2] were 9.3 nM and 6650 nM, respectively. The Ratio IC50 in data set [3] is 715.
In the case of `COc1cc2c(cc1OC)C(=O)N1C=C(c3ccc4ncccc4c3)C[C@H]1C=N2`, the Activity in data set [4] came to 78%. Moreover, the half-maximal inhibitory concentration (IC50) in the data set on NCI-H460 [1] worked out at 0.54 nM; in the data set on NCI-H460 [2], 0.77 nM. Further, in [3], the Ratio IC50 was determined as 1.4.
Consider `C=C1C[C@H]2C=Nc3cc(OCCCCCOc4cc5c(cc4OC)C(=O)N4CC(=C)C[C@H]4C(O)N5C(=O)OCc4cnc([N+](=O)[O-])n4C)c(OC)cc3C(=O)N2C1` (some centres not stated), for which the Drug metabolism in data set [5] and in [6] was 0% in each case. Further, the Activity in data set [4] is 92%. Besides, the values for the IC50 in the data set on NCI-H460 [1] and in the data set on NCI-H460 [2] were 1.1 nM and 1.4 nM, respectively. Moreover, in [3], the Ratio IC50 turned out to be 1.3.
`C=C1C[C@H]2C(O)N(C(=O)OCc3cnc([N+](=O)[O-])n3C)c3cc(OC)c(OC)cc3C(=O)N2C1` (some centres not stated): the figures for the Drug metabolism in [7] and in data set [8] were 2% and 100%, respectively. Moreover, in data set [4], the Activity is 100%. Also, the values for the half-maximal inhibitory concentration (IC50) in the data set with NCI-H460 [1] and in the data set on NCI-H460 [2] were 35000 nM and 196000 nM, respectively. Besides, in [3], the Ratio IC50 came to 5.6.
On to `C=C1C[C@H]2C(O)N(C(=O)OCc3cncn3C)c3cc(OC)c(OC)cc3C(=O)N2C1` (some centres not stated), for which the Drug metabolism in [7] and in data set [8] was 0% throughout.
Regarding `COc1cc2c(cc1OC)N(C(=O)OCc1cnc([N+](=O)[O-])n1C)C(O)[C@@H]1CC(c3ccc4ncccc4c3)=CN1C2=O` (some centres not stated), the Drug metabolism in [9] is on record as 5%; in [10] it was 92%. Further, the Activity in data set [4] worked out at 100%. In addition, the half-inhibitory concentration (IC50) with NCI-H460 [1] was found to be 17 nM; in the data set with NCI-H460 [2], 232 nM. Also, in [3], the Ratio IC50 turned out to be 13.6.
For the compound `C=C1C[C@H]2C=Nc3cc(OC)c(OC)cc3C(=O)N2C1`, in [4], the Activity came out at 84%. Further, the 50% inhibitory concentration (IC50) is 273 nM with NCI-H460 [1] and 550 nM in the data set on NCI-H460 [2]. Further, in data set [3], the Ratio IC50 was 2.
The corresponding values for `C=C1C[C@H]2C=Nc3cc(OCCCCCOc4cc5c(cc4OC)C(=O)N4CC(=C)C[C@H]4C=N5)c(OC)cc3C(=O)N2C1` are 42%, 0.062 nM, 0.092 nM and 1.5.
As for `C=C1C[C@H]2C=Nc3cc(OCCCCCOc4cc5c(cc4OC)C(=O)N4CC(=C)C[C@H]4C(O)N5C(=O)OCc4cncn4C)c(OC)cc3C(=O)N2C1` (some centres not stated), the Drug metabolism in data set [5] and in [6] was 0% throughout.
